Results reported in ChEMBL document CHEMBL1201862, “PubChem BioAssay data set” (2004).
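Tested at 5 concentrations; 48 h exposure; 96-well plates; endpoints linearly interpolated, else capped at highest concentration. GI50 is the concentration that inhibits growth by half.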 Calls of active or inactive are those of the source. Cut-off read from the data, not from the text of the source: active = GI50 up to about 1.1 µM and inactive = higher.

Key:
Experiment in all cases: NCI tumour cell line growth inhibition, 48 h
[1] = tested on: KM12
[2] = tested on: SNB-75
[3] = tested on: NCI-H522
[4] = tested on: NCI-H226
[5] = tested on: A549
[6] = tested on: UACC-62
[7] = tested on: RXF 393
[8] = tested on: Malme-3M
[9] = tested on: MOLT-4
[10] = tested on: CAKI-1
[11] = tested on: HCT-116
[12] = tested on: HOP-92
[13] = tested on: SF-268
[14] = tested on: OVCAR-3
[15] = tested on: A498
[16] = tested on: 786-0
[17] = tested on: UO-31
[18] = tested on: OVCAR-5
[19] = tested on: SK-OV-3

Structure (SMILES)	GI50 [1]	GI50 [2]	GI50 [3]	GI50 [4]	GI50 [5]	GI50 [6]	GI50 [7]	GI50 [8]	GI50 [9]	GI50 [10]	GI50 [11]	GI50 [12]	GI50 [13]	GI50 [14]	GI50 [15]	GI50 [16]	GI50 [17]	GI50 [18]	GI50 [19]
COc1ccc(-c2cnoc2-c2ccc(OC)c(OC)c2)cc1OC	0.746 µM (active)	1.78 µM (inactive)	0.556 µM (active)	1.71 µM (inactive)	3.02 µM (inactive)	0.406 µM (active)	1.23 µM (inactive)	2.15 µM (inactive)	0.893 µM (active)	2.35 µM (inactive)	1.26 µM (inactive)	2.67 µM (inactive)	2.32 µM (inactive)	1.31 µM (inactive)	1.6 µM (inactive)	1.64 µM (inactive)	4.46 µM (inactive)	3.72 µM (inactive)	1.47 µM (inactive)
CC(C)c1nc2cc(C(F)(F)F)ccc2[nH]c1=O	> 100 µM (inactive)	34.4 µM (inactive)	39 µM (inactive)	51.3 µM (inactive)	53.6 µM (inactive)	29.8 µM (inactive)	49.1 µM (inactive)	> 100 µM (inactive)	75.3 µM (inactive)	72.6 µM (inactive)	62.2 µM (inactive)	42.5 µM (inactive)	88.5 µM (inactive)	49.9 µM (inactive)	61.9 µM (inactive)	66.7 µM (inactive)	> 100 µM (inactive)	> 100 µM (inactive)	> 100 µM (inactive)
O=C1/C(=C/c2ccccc2)CN(C(=O)C(F)(F)F)C/C1=C\c1ccccc1	1.54 µM (inactive)	6.58 µM (inactive)	2.74 µM (inactive)	–	3.17 µM (inactive)	1.84 µM (inactive)	1.84 µM (inactive)	3.72 µM (inactive)	3.06 µM (inactive)	–	0.333 µM (active)	–	3.94 µM (inactive)	3.25 µM (inactive)	1.98 µM (inactive)	1.68 µM (inactive)	2.18 µM (inactive)	3.46 µM (inactive)	–
COc1ccc(C2S/C(=C\c3cccc(OC)c3)C(=O)N2NC(=O)Cc2ccccc2)cc1 (stereo not given)	> 100 µM (inactive)	> 100 µM (inactive)	> 100 µM (inactive)	94.8 µM (inactive)	> 100 µM (inactive)	> 100 µM (inactive)	> 100 µM (inactive)	> 100 µM (inactive)	> 100 µM (inactive)	> 100 µM (inactive)	> 100 µM (inactive)	> 100 µM (inactive)	> 100 µM (inactive)	–	> 100 µM (inactive)	> 100 µM (inactive)	> 100 µM (inactive)	> 100 µM (inactive)	> 100 µM (inactive)
O=C(c1ccccc1)N1CCN2CCN=C(c3ccccc3)C21c1ccccc1 (stereo not given)	> 100 µM (inactive)	51.3 µM (inactive)	–	19.5 µM (inactive)	95.3 µM (inactive)	18.1 µM (inactive)	45.5 µM (inactive)	35.5 µM (inactive)	20.2 µM (inactive)	–	48.2 µM (inactive)	17.1 µM (inactive)	–	79.1 µM (inactive)	> 100 µM (inactive)	> 100 µM (inactive)	22.8 µM (inactive)	–	> 100 µM (inactive)
O=C(/C=C(\O)C(=O)O)/C=C(\O)c1ccc(Cl)cc1	> 100 µM (inactive)	> 100 µM (inactive)	> 100 µM (inactive)	> 100 µM (inactive)	> 100 µM (inactive)	> 100 µM (inactive)	> 100 µM (inactive)	> 100 µM (inactive)	> 100 µM (inactive)	> 100 µM (inactive)	> 100 µM (inactive)	> 100 µM (inactive)	> 100 µM (inactive)	> 100 µM (inactive)	> 100 µM (inactive)	> 100 µM (inactive)	> 100 µM (inactive)	> 100 µM (inactive)	> 100 µM (inactive)
COC(=O)C(=O)C(C(=O)C=C(C)C)C(=O)C(=O)Nc1cc(C(F)(F)F)ccc1Cl (stereo not given)	> 100 µM (inactive)	> 100 µM (inactive)	57.5 µM (inactive)	> 100 µM (inactive)	> 100 µM (inactive)	> 100 µM (inactive)	> 100 µM (inactive)	> 100 µM (inactive)	> 100 µM (inactive)	> 100 µM (inactive)	> 100 µM (inactive)	> 100 µM (inactive)	> 100 µM (inactive)	> 100 µM (inactive)	> 100 µM (inactive)	> 100 µM (inactive)	> 100 µM (inactive)	> 100 µM (inactive)	> 100 µM (inactive)
O=C1c2ccccc2C(=O)C1(Cl)C1(S(=O)(=O)O)c2ccccc2-c2ccccc21	> 100 µM (inactive)	> 100 µM (inactive)	> 100 µM (inactive)	> 100 µM (inactive)	> 100 µM (inactive)	> 100 µM (inactive)	> 100 µM (inactive)	> 100 µM (inactive)	> 100 µM (inactive)	> 100 µM (inactive)	> 100 µM (inactive)	> 100 µM (inactive)	> 100 µM (inactive)	> 100 µM (inactive)	> 100 µM (inactive)	> 100 µM (inactive)	> 100 µM (inactive)	> 100 µM (inactive)	> 100 µM (inactive)
CC(=O)NC1=C(NCCN(C)C)C(=O)c2ccccc2C1=O	15.8 µM (inactive)	25.5 µM (inactive)	10.3 µM (inactive)	> 50 µM (inactive)	15 µM (inactive)	10.5 µM (inactive)	25.4 µM (inactive)	7.62 µM (inactive)	21.9 µM (inactive)	–	8.34 µM (inactive)	–	21.5 µM (inactive)	14.7 µM (inactive)	–	18.1 µM (inactive)	> 50 µM (inactive)	–	> 50 µM (inactive)
CCN(CC)C(=O)CNC(=O)OC(C)(C)C	> 100 µM (inactive)	> 100 µM (inactive)	> 100 µM (inactive)	> 100 µM (inactive)	> 100 µM (inactive)	> 100 µM (inactive)	> 100 µM (inactive)	> 100 µM (inactive)	> 100 µM (inactive)	> 100 µM (inactive)	> 100 µM (inactive)	> 100 µM (inactive)	> 100 µM (inactive)	> 100 µM (inactive)	> 100 µM (inactive)	> 100 µM (inactive)	> 100 µM (inactive)	> 100 µM (inactive)	> 100 µM (inactive)
C=CC1C(OC2OC(CO)C(O)C(O)C2O)OC=C(C(=O)OC)C1CC=O (stereo not given)	> 100 µM (inactive)	> 100 µM (inactive)	–	37.8 µM (inactive)	> 100 µM (inactive)	> 100 µM (inactive)	> 100 µM (inactive)	> 100 µM (inactive)	> 100 µM (inactive)	–	–	–	> 100 µM (inactive)	> 100 µM (inactive)	> 100 µM (inactive)	> 100 µM (inactive)	> 100 µM (inactive)	–	> 100 µM (inactive)
Cc1nc2c(o1)/C(=N\c1ccccc1)c1ccccc1C2=O	15.1 µM (inactive)	10.9 µM (inactive)	4.57 µM (inactive)	–	20.3 µM (inactive)	3.37 µM (inactive)	20.2 µM (inactive)	3.98 µM (inactive)	18 µM (inactive)	18.4 µM (inactive)	6.98 µM (inactive)	12.3 µM (inactive)	7.83 µM (inactive)	2.54 µM (inactive)	34.1 µM (inactive)	15.2 µM (inactive)	7.89 µM (inactive)	18.5 µM (inactive)	14.8 µM (inactive)
Cc1cc(N(CCC#N)CCC#N)ccc1/N=N/c1ccc(Br)cc1	> 23.8 µM (inactive)	–	16.6 µM (inactive)	25.1 µM (inactive)	15.1 µM (inactive)	9.31 µM (inactive)	8.13 µM (inactive)	53.6 µM (inactive)	19.3 µM (inactive)	16.4 µM (inactive)	36.8 µM (inactive)	–	22.3 µM (inactive)	> 44.2 µM (inactive)	13.7 µM (inactive)	13.2 µM (inactive)	27.7 µM (inactive)	> 100 µM (inactive)	2.64 µM (inactive)
COc1ccc(C(=O)O)c2c(=O)c3ccccc3[nH]c12	> 100 µM (inactive)	–	> 100 µM (inactive)	> 100 µM (inactive)	> 100 µM (inactive)	> 100 µM (inactive)	> 100 µM (inactive)	> 100 µM (inactive)	> 100 µM (inactive)	> 100 µM (inactive)	> 100 µM (inactive)	> 100 µM (inactive)	> 100 µM (inactive)	> 10 µM (inactive)	> 100 µM (inactive)	> 100 µM (inactive)	> 100 µM (inactive)	> 100 µM (inactive)	> 100 µM (inactive)
CC(CN(C)C)C(=O)c1ccccc1 (stereo not given)	18.2 µM (inactive)	> 83.9 µM (inactive)	2.04 µM (inactive)	> 100 µM (inactive)	> 65.3 µM (inactive)	35.8 µM (inactive)	22.8 µM (inactive)	24.3 µM (inactive)	8.22 µM (inactive)	3.43 µM (inactive)	28.8 µM (inactive)	2.33 µM (inactive)	30.3 µM (inactive)	42.4 µM (inactive)	> 46.1 µM (inactive)	22.6 µM (inactive)	> 31.6 µM (inactive)	32.3 µM (inactive)	–
CC(=O)c1cccc(NC(=O)C(=O)Nn2c(N)nnc2N)c1	> 100 µM (inactive)	> 100 µM (inactive)	> 100 µM (inactive)	> 100 µM (inactive)	> 100 µM (inactive)	> 100 µM (inactive)	> 100 µM (inactive)	> 100 µM (inactive)	> 100 µM (inactive)	> 100 µM (inactive)	> 100 µM (inactive)	> 100 µM (inactive)	> 100 µM (inactive)	–	> 100 µM (inactive)	> 100 µM (inactive)	> 100 µM (inactive)	> 100 µM (inactive)	> 100 µM (inactive)
